Data from patent US20260364057A1, “AMIDE COMPOUND, AND COMPOSITION AND USE THEREOF” (SIMCERE ZAIMING PHARMACEUTICAL CO., LTD., priority 2022, published 2026).

Columns and labels:
OVCAR3 cells = assay: Inhibition of proliferation of OVCAR-3 cells (Cell-Titer Glo); format: cell-based; conditions: Homo sapiens, OVCAR-3, 72 h, 3 days, 1000 cells/well
Text: Test Example 2. Test on Inhibition of Proliferation of OVCAR-3 Cells by Compounds of Present Disclosure
Cell and material: The human ovarian cancer cell line OVCAR3 was purchased from ATCC (Cat. No. HTB-161™), RPMI 1640 medium (Gibco #A1049101), penicillin-streptomycin (Gibco #15140122), and 0.25% Trypsin-EDTA (Gibco #25200056) were purchased from Gibco (U.S.), bovine insulin (Yeasen #40107ES60) was purchased from Yeasen, 384-well plates (Corning #CLS3765) was purchased from Corning (U.S.), and Cell-Titer Glo reagent (Promega #G7568) was purchased from Promega (U.S.).
Cell culture: OVCAR3 cells were cultured in RPMI 1640 complete medium (RPMI 1640 medium containing 20% fetal bovine serum, […] bovine insulin, and 1% penicillin-streptomycin) in an incubator (37 °C, 5% CO2), and the cells could be used in experiments when in the logarithmic growth phase.
Cell proliferation activity test: The Cell-Titer Glo reagent was used to test the compound for inhibition of proliferation of the OVCAR3 cell strain. The compound formulated with DMSO and pure DMSO (control) were each added to a 384-well plate using an Echo instrument; the compound was subjected to 3-fold serial dilution starting from 30 μM to obtain 11 concentration points, and the volume of the compound or DMSO added was 100 nL.
OVCAR3 cells were digested and resuspended in RPMI 1640 complete medium, and the suspension was added to a 384-well plate (1000 cells/50 μL/well) to be well mixed with the compound. The mixture was incubated in an incubator (37 °C, 5% CO2) for 3 days. The Cell-Titer Glo reagent was added at 25 µL/well, and the resulting mixture was well mixed by shaking and then incubated for 10 min. The Cell-Titer Glo readings were measured with a Multimode Plate Reader (brand: PerkinElmer; model: SIC-PV-018).
A negative control group (Bottom) was set, and the negative control group was medium wells with 0.2% DMSO added and was defined as 100% proliferation inhibition; the positive control group (Top) was OVCAR3 cell wells with 0.2% DMSO added.
The percent proliferation inhibition (% Inhibition) was calculated, and the curves were fit using the four-parameter equation, Y=Bottom+(Top−Bottom)/(1+(IC50/X)^HillSlope), to obtain the proliferation inhibition IC50 of the compound. • Percent inhibition: % Inhibition=(1−(Signal−Bottom)/(Top−Bottom))×100%. • Signal: Cell-Titer Glo reading of wells with compound added; • Bottom: Cell-Titer Glo reading of negative control wells; • Top: Cell-Titer Glo reading of positive control wells.

Human KIF18A (1-376aa) = molecular target: T1, Human KIF18A (1-376aa) (Homo sapiens, UniProt Q8NI77); assay: KIF18A enzyme activity assay (ADP-Glo); format: biochemical; conditions: microtubule 50 μg/mL, ATP (Km 70 μM), room temperature, 15 min, read-out: KIF18A inhibitory activity IC50
T1 construct: Human KIF18A (1-376aa) protease used in the experiments; purchased Shanghai Panchao Biotechnology Co., Ltd
T1 sequence (Q8NI77 1-376): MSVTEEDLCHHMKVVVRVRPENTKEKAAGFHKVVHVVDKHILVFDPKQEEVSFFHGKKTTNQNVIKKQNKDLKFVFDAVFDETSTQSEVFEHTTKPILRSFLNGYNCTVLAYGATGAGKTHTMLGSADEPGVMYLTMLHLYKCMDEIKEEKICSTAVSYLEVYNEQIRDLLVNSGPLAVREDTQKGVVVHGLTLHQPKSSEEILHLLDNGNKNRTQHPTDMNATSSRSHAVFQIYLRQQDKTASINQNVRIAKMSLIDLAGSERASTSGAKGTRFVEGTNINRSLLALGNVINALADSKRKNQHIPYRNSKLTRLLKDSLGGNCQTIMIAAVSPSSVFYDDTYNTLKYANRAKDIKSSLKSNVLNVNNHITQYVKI
Method: Test Example 1: KIF18A Enzyme Activity Assay
Based on the ADP-Glo™ Kinase Assay, the ADP amount generated in the reaction was detected to reflect the enzyme activity of KIF18A.
Human KIF18A (1-376aa) […] used in the experiments, expressed by Shanghai Panchao Biotechnology Co., Ltd., was stored at −80 °C (no more than 5 freeze-thaw cycles).
The assay kit (ADP-Glo™ Kinase Assay) was purchased from Promega (Cat. No. V9101) and stored at −30 °C. The kit detects the enzyme activity by measuring ADP generated in enzyme reaction. The KIF18A enzyme and ATP generate ADP. The remaining ATP in this reaction is consumed by the ADP-Glo reagent, while the ADP generated by the KIF18A enzyme reaction is converted back to ATP by the assay reagent. The ATP then reacts with luciferin in the presence of Ultra-Glo™ luciferase, producing luminescence. The luminescent signal is positively correlated with the activity of the KIF18A enzyme.
Compounds were each subjected to 3-fold serial dilution starting from 10 μM to obtain 10 concentration points. The compounds and pure DMSO (control) were pipetted into wells of a 384-well plate using an Echo instrument, and the total volume of compound and DMSO was 100 nL; sample concentrations of gradient dilution were obtained by the instrument based on different ratios. Preparation of a KIF18A enzyme reaction buffer: […], 10 mM MgCl2, 0.01% Pluronic F-68, 1 μM Taxol, and 50 μg/mL Microtubule. KIF18A and the enzyme reaction buffer were mixed, and then the mixed solution was added to the 384-well plate and incubated at room temperature for 15 min. ATP (Km 70 μM) was then added to the mixed solution, and the mixed solution was incubated at room temperature for 15 min. 10 μL of ADP-Glo™ Reagent was well mixed with 10 μL of the mixed solution, and the mixture was incubated at room temperature for 40 min. Finally, 20 μL of ADP-Glo™ Detection Reagent was added, and the mixture was incubated at room temperature for 30 min. The chemiluminescent signal in each well was measured using an Envision plate reader (PerkinElmer, emission wavelength: 400-700 nm). In the experiment, 1 column of wells with no compound and no enzyme (chemiluminescence value was taken as [RLU]background) and 1 column of wells with enzyme but no compound (chemiluminescence value was taken as [RLU]enzyme) were provided. The chemiluminescence value of the compound adding group was taken as [RLU]cpd. The inhibition rate of the compound on […] was calculated according to the following equation: inhibition rate (%)=([RLU]enzyme−[RLU]cpd)/([RLU]enzyme−[RLU]background)×100%, and the inhibitory activity IC50 value of the compound on the enzyme activity was calculated using a four-parameter Logistic Model method. In the following equation, x represents the logarithmic form of the concentration of compound, and f (x) represents an effect value (inhibition rate of enzyme activity at the concentration): F(x)=(A+((B−A)/(1+((C/x)^D)))). A. B, C, and D are four parameters.

| IC50 (OVCAR3 cells) [µM] | IC50 (Human KIF18A (1-376aa)) [µM] | Structure (SMILES) |
| --- | --- | --- |
| 0.0091 | < 0.2 | O=C(Nc1cc2c(c(N3CCC(F)(F)CC3)c1)COC2)c1ccc(NS(=O)(=O)CCO)cc1N1CCC2(CC1)CC2 [Compound 101] |
| 0.0431 | < 0.2 | O=C(Nc1cccc2c1nc1n2CC(C(F)(F)F)C1)c1ccc(NS(=O)(=O)CCO)cc1N1CCC2(CC1)CC2 (stereo not shown) [Compound 76] |
| 0.0254 | < 0.2 | O=C(Nc1cccc2c1nc1n2C2CCC1OC2)c1ccc(NS(=O)(=O)CCO)cc1N1CCC2(CC1)CC2 (stereo not shown) [Compound 77] |
| 0.0149 | < 0.2 | CS(=O)(=O)Nc1ccc(C(=O)Nc2cn3ccnc3c(N3CCC(F)(F)CC3)n2)c(N2CCC3(CC2)CC3)c1 [Compound 105] |
| 0.0942 | < 0.2 | O=C(Nc1cccc2c1nc1n2CCC2CC12)c1ccc(NS(=O)(=O)CCO)cc1N1CCC2(CC1)CC2 (stereo not shown) [Compound 71] |
| 0.0959 | < 0.2 | O=C(Nc1cccc2c1nc1n2CCCC1)c1ccc(NS(=O)(=O)CCO)cc1N1CCC2(CC1)CC2 [Compound 12] |
| 0.038 | < 0.2 | CCS(=O)(=O)Nc1ccc(C(=O)Nc2cc3c(c(N4CCC(F)(F)CC4)c2)CCC3)c(N2CCC3(CC2)CC3)c1 [Compound 73] |
| 0.00532 | < 0.2 | CCNC(=O)c1ccc(NC(=O)c2ccc(NS(=O)(=O)CCO)cc2N2CCC3(CC2)CC3)c2nc3n(c12)CCCCC3 [Compound 113] |
| 0.024 | < 0.2 | O=C(Nc1cc(N2CCC(F)(F)CC2)c2nccn2c1)c1ccc(NS(=O)(=O)CCO)cc1N1CCC2(CC1)CC2 [Compound 80] |
| 0.0484 | < 0.2 | N#Cc1ccc(NC(=O)c2ccc(NS(=O)(=O)CCO)cc2N2CCC3(CC2)CC3)c2nc3n(c12)CC1CC31 (stereo not shown) [Compound 92] |
| 0.0168 | < 0.2 | O=C(Nc1cc2c(c(N3CCC(F)(F)CC3)c1)CCC2)c1ccc(NS(=O)(=O)CCO)cc1N1CCC2(CC1)CC2 [Compound 41] |
| 0.0993 | < 0.2 | CC1(C)Cc2cc(NC(=O)c3ccc(NS(=O)(=O)CCO)cc3N3CCC4(CC3)CC4)cc(N3CCC(F)(F)CC3)c2O1 [Compound 82] |
| 0.031 | < 0.2 | CC1(C)Cn2c(nc3c(NC(=O)c4ccc(NS(=O)(=O)CCO)cc4N4CCC5(CC4)CC5)cccc32)CO1 [Compound 87] |
| 0.0453 | < 0.2 | O=C(Nc1cccc2c3n(nc12)CCCCC3)c1ccc(NS(=O)(=O)CCO)cc1N1CCC2(CC1)CC2 [Compound 78] |
| 0.0147 | < 0.2 | O=C(Nc1cc2c(c(N3CCC(F)(F)CC3)c1)CC2)c1ccc(NS(=O)(=O)CCO)cc1N1CCC2(CC1)CC2 [Compound 103] |
| 0.025 | < 0.2 | COc1ccc(NC(=O)c2ccc(NS(=O)(=O)CCO)cc2N2CCC3(CC2)CC3)c2nc3n(c12)CCCCC3 [Compound 96] |
| 0.0573 | < 0.2 | O=C(Nc1cccc2c1nc1n2C2CCC1C2)c1ccc(NS(=O)(=O)CCO)cc1N1CCC2(CC1)CC2 (stereo not shown) [Compound 72] |
| 0.021 | < 0.2 | O=C(Nc1cccc2c1nc1n2CCCOC1)c1ccc(NS(=O)(=O)CCO)cc1N1CCC2(CC1)CC2 [Compound 54] |
| 0.0993 | < 0.2 | O=C(Nc1cccc2c3c(nn12)C1CC1C3)c1ccc(NS(=O)(=O)CCO)cc1N1CCC2(CC1)CC2 (stereo not shown) [Compound 107] |
| 0.0228 | < 0.2 | O=C(Nc1cccc2c1nc1n2CCOC1)c1ccc(NS(=O)(=O)CCO)cc1N1CCC2(CC1)CC2 [Compound 34] |
| 0.0698 | < 0.2 | O=C(Nc1cccn2c3c(nc12)CCCCC3)c1ccc(NS(=O)(=O)CCO)cc1N1CCC2(CC1)CC2 [Compound 29] |
| 0.00665 | < 0.2 | O=C(Nc1cc(N2CCC(F)(F)CC2)c2occc2c1)c1ccc(NS(=O)(=O)CCO)cc1N1CCC2(CC1)CC2 [Compound 45] |
| 0.077 | < 0.2 | O=C(Nc1cccc2c1nc1n2CCCCCC1)c1ccc(NS(=O)(=O)CCO)cc1N1CCC2(CC1)CC2 [Compound 61] |
| 0.0657 | < 0.2 | O=C(Nc1cccc2c3c(nn12)CCCCC3)c1ccc(NS(=O)(=O)CCO)cc1N1CCC2(CC1)CC2 [Compound 64] |
| 0.0112 | < 0.2 | N#Cc1ccc(NC(=O)c2ccc(NS(=O)(=O)CCO)cc2N2CCC3(CC2)CC3)c2nc3n(c12)CC1C3C1(F)F (stereo not shown) [Compound 110] |
| 0.0366 | < 0.2 | O=C(Nc1cccc2c1nc1n2CC2CCC1O2)c1ccc(NS(=O)(=O)CCO)cc1N1CCC2(CC1)CC2 (stereo not shown) [Compound 40] |
